# Measured values reported in ChEMBL document CHEMBL3507680, “University of Dundee, Gates Library screen for HepG2 cell viability”.
# Experiment: Human HepG2 cell viability assay in 384 well format
# Assay type: toxicity, cell-based
# Parameters: dose 125 nL, time 70.5 hour; concentration not given beside the values
# Settings: HepG2 cells, read-out: Inhibition
row,Structure (SMILES),cytotoxicity at 70.5 h
1,COCc1nc(C(=O)NS(=O)(=O)c2ccc(C)cc2C)cs1,-11.1%
2,CC(O)CN1CCC(CNCc2cccc(Br)c2)CC1 (stereo unspecified),24.8%
3,CC(C)Oc1ncc(C(=O)N2CCC(NC(=O)C3CC3)CC2)cc1Cl,7%
4,CN(Cc1ccsc1)C(=O)c1nc(N2CCCCC2)ncc1Cl,-14.3%
5,Cc1ccc(N2CCO[C@H]3CN(Cc4cc(C)on4)CC[C@H]3C2=O)cn1,-9.06%
6,COc1cccc2c1OCC(NC(=O)NCCc1ccccn1)C2 (stereo unspecified),-9.54%
7,Nc1cc(-c2c[nH]nc2C2CCCN2CCCc2ccccc2)ccn1 (stereo unspecified),-1.57%
8,O=C(O)C1CCN(c2ccc(Sc3ccc(Br)cc3)nn2)CC1,26.1%
9,CN(C)c1ccc(NC(=O)C2CN(Cc3ccccc3)CCO2)cn1 (stereo unspecified),-3.21%
10,Cc1ccc(S(N)(=O)=O)cc1C(=O)NC1CCCN(C)C1 (stereo unspecified),1.47%
11,Cc1ccc(-c2ccnc(N3CCC4(CCO4)CC3)n2)c(C)n1,-6.98%
12,CN(Cc1cncnc1)[C@H]1CN(CC2CC2)[C@@H]2CCCO[C@@H]21,-5.03%
13,COc1ccc(CN2C[C@H]3C[C@H](CN(C)C)O[C@H]3C2)cc1,-5.86%
14,CCCSc1nn(CCCN(C)C)c2nc3sc(C)c(CC)c3c(=O)n12,11.5%
15,NC(=O)NC1CCN(Cc2ccc3c(c2)CCC3)CC1,-5.94%
16,CCOCCN1CCN(CCC(=O)N2CCCCC2)CC1,-8.84%
17,Cc1cnn(CC2CN(Cc3nc4cccnc4[nH]3)CCO2)c1 (stereo unspecified),7.51%
18,Cc1cccnc1NCCNc1cc(C(C)C)nc2ccnn12,-11.6%
19,Cn1ncc2c(NC3CCSC3)nc(-c3ccncc3)nc21 (stereo unspecified),3.97%
20,CSCCC(C)NC(=O)N(C)Cc1cc(Cl)cn1C (stereo unspecified),-10.9%
21,O=C(C[C@@H]1COC[C@H]2CN(C(=O)c3cccnc3)C[C@@H]12)N1CCOCC1,-4.26%
22,CC[C@H](C)[C@H](N)C(=O)Nc1nc(-c2cnc(N(C)CCO)nc2)cs1,-1.04%
23,Cc1cccc(-c2nc(C)nn2CN2CCN(S(C)(=O)=O)CC2)c1,-3.93%

row,Structure (SMILES),cytotoxicity at 70.5 h
1,COc1ccc(C(=O)N2CC[C@@]3(O)CCCC[C@H]3C2)cc1OC,5.36%
2,C1CC(c2noc(C3CC3)n2)N(Cc2nc(C3CC3)no2)C1 (stereo unspecified),-10.7%
3,CSCC(C)(O)CNC(=O)c1ccc(Br)cc1C (stereo unspecified),-9.56%
4,COCC1c2nnn(C)c2CCN1C(=O)Cc1ccc2c(c1)OCO2 (stereo unspecified),9.52%
5,COC(=O)CSCc1noc(-c2ccc(C)cc2)n1,0.48%
6,CCc1cc(C(=O)N2CCCC(c3[nH]ncc3S(C)(=O)=O)C2)no1 (stereo unspecified),-7.59%
7,N#Cc1cccc(N2CCC(CO)(CCOc3ccccc3)CC2)n1,-4.29%
8,O=C(NC[C@H]1OC[C@@H](NC2COC2)[C@@H]1O)C1CCCC1,-8.61%
9,O=C(CN1CCCNC1=O)N(Cc1ccccc1)CC(F)F,1.59%
10,c1ccc(CN2CCc3ncnc(C4CCOC4)c3CC2)nc1 (stereo unspecified),-2.85%
11,Cn1cnc(S(=O)(=O)NCCN2CCCCCC2)c1Cl,4.34%
12,Clc1ccc(C2(CNC3=NCCN3)CCCCC2)cc1,26.8%
13,COc1cccc2c1N(Cc1nc(C3CC3)no1)CCC2,5.14%
14,CN(Cc1coc(-c2ccccc2)n1)CC1CCCN1c1cccnn1 (stereo unspecified),4.57%
15,N#Cc1cn(C2CC2)c(=O)n(Cc2ncc(-c3cccs3)o2)c1=O,-13%
16,CCCN1CCC2(Cc3ccccc3NC2=O)C1 (stereo unspecified),-0.983%
17,CCCn1nc(C)c(C(=O)N(C)[C@@H]2CC[C@@H](OC)[C@@H]2O)c1C,-3.89%
18,CC1(C)CN(C(=O)CC2CCC2)C[C@]1(C)O,-2.02%
19,Cc1nccn1-c1ccc(NS(=O)(=O)c2cnn(C(C)C)c2)cn1,-2.54%
20,NC1(c2nc(-c3cccs3)cc(=O)[nH]2)CCCC1,8.08%
21,Cc1cccc(NC(=O)NCCCn2nc3ccccn3c2=O)c1C,-8.44%
22,Cn1cnnc1S(=O)(=O)Cc1cc(Cl)c2c(c1)OCCO2,-1.41%
23,O=C(CSc1ccc2c(c1)OCCO2)NS(=O)(=O)c1ccccc1,-8.6%

row,Structure (SMILES),cytotoxicity at 70.5 h
1,O=C(CSC1CCc2ccccc2NC1=O)NCCc1ccco1 (stereo unspecified),7.74%
2,CN(c1nc(Cn2cnccc2=O)cs1)C1CC1,-4.18%
3,Cc1ccc(NC(=O)N2CCC(CO)(Nc3ccccc3)CC2)cc1,17.1%
4,C[C@@H](O)CNC(=O)c1nc(CC(=O)Nc2ccccc2)no1,-19.3%
5,COc1cc(C)ccc1OCC(=O)NS(=O)(=O)c1cc(F)ccc1F,-4.22%
6,CC(C)(Oc1ccc(C(N)=O)cc1)C(=O)N(CCC#N)CC1CCCO1 (stereo unspecified),6.27%
7,Cn1cc(CN2C[C@@H](N3CCCC3=O)[C@H]3OCCC[C@H]32)cn1,-3.55%
8,Cc1ccc(CN2CCOC3(COCCN(Cc4ccncc4)C3)C2)o1 (stereo unspecified),-13.7%
9,CSCCC(=O)NS(=O)(=O)c1ccc2c(c1)OCCO2,-7.91%
10,CCn1nc2c(cc1=O)CN(CCCN1CCCC1=O)CC2,16.8%
11,COc1ccccc1-n1nc(-c2ccco2)n(CC(=O)NC2CC2)c1=O,10.2%
12,CCCOCCn1ncc(N2CCCC2)cc1=O,-1.75%
13,COCCC(=O)N1CCC(c2noc3nc(C)cc(C(F)(F)F)c23)CC1,-4.96%
14,c1ccc(-c2nc(CN3CCCC3Cn3cncn3)no2)cc1 (stereo unspecified),-13.3%
15,Cc1cnn(CC2CN(Cc3nc4ccccc4s3)CCO2)c1 (stereo unspecified),-4.94%
16,Cc1nsc(NC(=O)N2CCc3sccc3C2)n1,-7.28%
17,O=C1C(n2nnc(-c3cccs3)n2)CCN1CC(F)(F)F (stereo unspecified),-7.6%
18,CCn1c(N)nc2cc(C(=O)N3CCN(c4nccs4)CC3)cnc21,-6.84%
19,CN(Cc1cccnc1)[C@@H]1CN(Cc2ccccn2)[C@@H]2CCCO[C@H]12,-2.2%
20,CS(=O)(=O)N[C@@H]1CN(Cc2ccccc2)C[C@@H]2CCCO[C@@H]21,-4.64%
21,Cc1ncc(-c2ccnc(NCCc3ccc(F)cc3)n2)c(=O)[nH]1,-12.9%
22,CCC(OC)C(=O)NCC1CCN(c2cnn(C)c(=O)c2)CC1 (stereo unspecified),-3.42%
23,Cc1nc(C2CCCNC2)nc2c1CCCN2Cc1ccccn1 (stereo unspecified),-3.47%

row,Structure (SMILES),cytotoxicity at 70.5 h
1,CCn1cnnc1CCNC(=O)C(C)(C)c1cccc(Cl)c1,-7.37%
2,c1coc(CN2CC[C@H]3O[C@@H](COCC4CC4)CC[C@H]32)c1,7.95%
3,CCOCCOC(C)C(=O)NCc1cn2cc(Br)ccc2n1 (stereo unspecified),-1.73%
4,Cc1cc2ncn(C(=O)N3CCCCC3)c2cc1C,-7.84%
5,CCC(C)NC(=O)NCCC(=O)N1CCN(c2ccccn2)CC1 (stereo unspecified),-0.377%
6,Cc1cnn(CCC(=O)NCc2ccc(N(C)C)c(C)c2)c1,-5.29%
7,CN1[C@H]2CC[C@@H]1CN(c1nc(-c3ccncc3)nc3c1cnn3C)CC2,-2.38%
8,Cn1cc(CN2CC[C@H]3O[C@H](C(=O)NCc4ccco4)CC[C@H]32)cn1,-12.4%
9,Cc1nc(O)c2nnn(C[C@H]3CCCN3C(=O)c3ccccc3C)c2n1,11.5%
10,O=C(c1cc(-c2ccco2)nc2c(Cl)cccc12)N1CCS(=O)(=O)CC1,-11.9%
11,CC(=O)N1CCN(CCNC(=O)c2nc3ccccc3c(=O)[nH]2)CC1,-7.43%
12,CS(=O)(=O)N1C[C@@H]2OCC(=O)N(CC3CC3)[C@@H]2C1,-7.03%
13,COc1ncccc1NC(=O)NC1CCOc2ccccc21 (stereo unspecified),-14.2%
14,CC(C)c1noc(CN(CCC2CCCCC2)CC(N)=O)n1,-3.41%
15,CC(C)c1ncc(CN2C[C@@H](CN3CCCN(C)CC3)[C@@H](CO)C2)cn1,-3.2%
16,Cn1c(CN2CCCCCC2)cc(=O)c(O)c1CN1CCCC1,51.6%
17,CC(C)(C)C(=O)NCCC1CN(Cc2ccccc2F)CCO1 (stereo unspecified),-9.52%
18,COc1ccc(N(C(=O)c2ccccn2)C(C)C)cc1F,-3.02%
19,CN1CCCC[C@@H]2[C@H]1[C@@H](c1ccccc1)CCN2C(=O)c1ccccc1,1.32%
20,Cc1cccn2cc(CN3CCC(N4CCN(C)C4=O)CC3)nc12,-6.74%
21,CC(O)c1cccc(N2CCC3(CCC(=O)N(CC(N)=O)C3)CC2)n1 (stereo unspecified),-11.2%
22,CN1CCN([C@@H]2CCN(CC3=Cc4cc(Cl)ccc4OC3)C[C@H]2O)CC1,-0.445%
23,CCC(C)NS(=O)(=O)Cc1cccc(NC(=O)c2ccc[nH]2)c1 (stereo unspecified),-2.71%

row,Structure (SMILES),cytotoxicity at 70.5 h
1,CNC(=O)c1cc(NC(=O)NC2CC2)ccc1F,-8.55%
2,c1ccc(-c2noc(CN3CCCC(Cn4cncn4)C3)n2)nc1 (stereo unspecified),-11.5%
3,c1cnn(CCN2CCOC(Cn3cccn3)C2)c1 (stereo unspecified),-4.95%
4,CC(=O)N[C@@H]1CN(C(=O)c2ccncc2)C[C@H]1c1ccc(C)cc1,-3.8%
5,O=S(=O)(c1ccc(Cl)s1)N1CCN(Cc2nc(-c3ccco3)cs2)CC1,-13.8%
6,COc1cccn(Cc2nnc(-c3cccc(F)c3)o2)c1=O,-3.37%
7,Cc1cc(C)n(CC2CN(CC(=O)Nc3c(C)n[nH]c3C)CCO2)n1 (stereo unspecified),-8.05%
8,CCn1cncc1CN1CCc2nc3sccc3c(=O)n2CC1,-5.29%
9,CN(C)S(=O)(=O)N1CCCC(C)(c2ncc(C(N)=O)s2)C1 (stereo unspecified),5.78%
10,COc1c(C2CCCN2Cc2nc(C)c(C)o2)c(C)nn1C (stereo unspecified),-7.8%
11,CC(C(=O)NC1CC1)S(=O)(=O)Cc1noc(C(C)(C)C)n1 (stereo unspecified),-1.87%
12,O=C1[C@@H]2CCN(CC3CCOCC3)C[C@@H]2OCCN1c1ccccc1,1.16%
13,O=C(NCc1ccco1)c1cc(N2CC[C@@H](O)C2)ccn1,30.9%
14,CS(=O)(=O)CC1CCCN(c2ncnc3c2Cc2ccccc2OC3)C1 (stereo unspecified),-9.52%
15,Cc1cnn(CCC(=O)N2CCCC(c3nc(C)c(C)s3)C2)c1 (stereo unspecified),1.92%
16,CN(Cc1ccco1)C(=O)C1CSCN1C(=O)c1cccnc1 (stereo unspecified),-15.1%
17,CCNC(=O)N1CCC(c2ccccc2)C1 (stereo unspecified),2.66%
18,Cc1nc(C)c(S(=O)(=O)NC(=O)c2ccsc2)s1,-7%
19,O=C(Cc1ccsc1)N1CCCC(c2n[nH]c3ncccc23)C1 (stereo unspecified),-5.61%
